Laboratory results taken from ChEMBL document CHEMBL1143021, “Synthesis of xanthone derivatives with extended pi-systems as alpha-glucosidase inhibitors: insight into the probable binding mode” (Bioorg Med Chem, 2007).
pIC50: −log10 of the molar value.

Assay: Inhibition of yeast alpha glucosidase at pH 6.8
Design: species or system Saccharomyces cerevisiae

Compound | pIC50
OC[C@H]1NC(O)C[C@@H](O)[C@@H]1O (stereo not given in full) | 4.58
COc1cc(O)c2c(=O)c3cc4ccccc4cc3oc2c1 | 4.50
Oc1cc(O)c2c(c1)Oc1ccc3ccccc3c1C2 | 4.46
O=c1c2c(O)cc(O)cc2oc2ccc3ccccc3c12 | 4.40
O=c1c2cc3cc(O)ccc3cc2oc2cc(O)cc(O)c12 | 5.24
O=c1c2ccccc2oc2cc(O)cc(O)c12 | 3.79
O=c1c2cc3cccc(O)c3cc2oc2cc(O)cc(O)c12 | 5.10
Oc1cc(O)c2c(c1)Oc1cc3ccccc3cc1C2 | 4.56
O=c1c2cc3ccccc3cc2oc2c([N+](=O)[O-])c(O)cc(O)c12 | 4.70
O=c1c2cc3ccccc3cc2oc2cc(O)cc(O)c12 | 5.03
